In patent US9505726B2, “Substituted biphenyl amides as P2X3 and P2X2/3 antagonists” (Roche Palo Alto LLC, priority 2009, dated 2016):

target: T1, rat P2X3 receptor (Rattus norvegicus, UniProt P49654); test: P2X3 FLIPR (Fluorometric Imaging Plate Reader) assay; type: cell-based; details: CHO-K1 cells transfected with cloned rat P2X3; agonist α,β-meATP 1 μM; Fluo-3 AM calcium fluorescence
T1 construct: expressed in transfected cells; host or cells: CHO-K1
T1 sequence (P49654 1-397): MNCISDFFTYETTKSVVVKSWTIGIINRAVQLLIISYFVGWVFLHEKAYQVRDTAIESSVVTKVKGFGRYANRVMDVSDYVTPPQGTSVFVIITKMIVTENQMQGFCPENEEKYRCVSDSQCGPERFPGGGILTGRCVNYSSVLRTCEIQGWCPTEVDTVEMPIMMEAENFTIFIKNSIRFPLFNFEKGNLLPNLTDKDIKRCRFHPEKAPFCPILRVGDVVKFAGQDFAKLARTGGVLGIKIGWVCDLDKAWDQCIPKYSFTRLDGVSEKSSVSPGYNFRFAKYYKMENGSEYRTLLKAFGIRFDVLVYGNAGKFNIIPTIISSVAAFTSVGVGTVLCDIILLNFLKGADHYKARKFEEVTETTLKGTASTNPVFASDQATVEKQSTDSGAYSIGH
Procedure: CHO-K1 cells were transfected with cloned rat P2X3 or human P2X2/3 receptor subunits and passaged in flasks. 18-24 hours before the FLIPR experiment, cells were released from their flasks, centrifuged, and resuspended in nutrient medium at 2.5×10^5 cells/ml. The cells were aliquoted into black-walled 96-well plates at a density of 50,000 cells/well and incubated overnight in 5% CO2 at 37° C. On the day of the experiment, cells were washed in FLIPR buffer (calcium- and magnesium-free Hank's balanced salt solution, 10 mM HEPES, 2 mM CaCl2, 2.5 mM probenecid; FB). Each well received 100 μl FB and 100 μl of the fluorescent dye Fluo-3 AM [2 μM final conc.]. After a 1 hour dye loading incubation at 37° C., the cells were washed 4 times with FB, and a final 75 μl/well FB was left in each well.
Test compounds (dissolved in DMSO at 10 mM and serially diluted with FB) or vehicle were added to each well (25 μl of a 4× solution) and allowed to equilibrate for 20 minutes at room temperature. The plates were then placed in the FLIPR and a baseline fluorescence measurement (excitation at 488 nm and emission at 510-570 nm) was obtained for 10 seconds before a 100 μl/well agonist or vehicle addition. The agonist was a 2X solution of α,β-meATP producing a final concentration of 1 μM (P2X3) or 5 μM (P2X2/3). Fluorescence was measured for an additional 2 minutes at 1 second intervals after agonist addition. A final addition of ionomycin (5 μM, final concentration) was made to each well of the FLIPR test plate to establish cell viability and maximum fluorescence of dye-bound cytosolic calcium. Peak fluorescence in response to the addition of α,β-meATP (in the absence and presence of test compounds) was measured and inhibition curves generated using nonlinear regression. PPADS, a standard P2X antagonist, was used as a positive control.

| SMILES | P2X3 (pIC50 values for the P2X3 receptor) |
| --- | --- |
| CCN(C(=O)COC)c1cc(C(=O)NC(C)c2cnccn2)cc(-c2ccc(C)cc2)c1 (centres unmarked) [Compound 23, 5-[Ethyl-(2-methoxy-acetyl)-amino]-4′-methyl-biphenyl-3-carboxylic acid (1-pyrazin-2-yl-ethyl)-amide] | 6.5 |
| COCC(C)NC(=O)c1cc(NC(=O)c2cscc2OC)cc(-c2ccc(C)cc2)c1 (centres unmarked) [Compound 17, 4-Methoxy-thiophene-3-carboxylic acid [5-(2-methoxy-1-methyl-ethylcarbamoyl)-4′-methyl-biphenyl-3-yl]-amide] | 5.87 |
| Cc1ccc(-c2cc(C(=O)N[C@@H](C)CO)cc(N(C)C(=O)C(C)C)c2)c(Cl)c1 [Compound 55, 2′-Chloro-5-(isobutyryl-methyl-amino)-4′-methyl-biphenyl-3-carboxylic acid ((S)-2-hydroxy-1-methyl-ethyl)-amide] | 5.53 |
| Cc1ccc(-c2cc(C(=O)NC(C)c3cnccn3)cc(N(C)C(=O)C3CCCC3)c2)cc1 (centres unmarked) [Compound 51, 5-(Cyclopentanecarbonyl-methyl-amino)-4′-methyl-biphenyl-3-carboxylic acid (1-pyrazin-2-yl-ethyl)-amide] | 7.57 |
| CCN(C(=O)OCC(C)C)c1cc(C(=O)NC(C)c2cnccn2)cc(-c2ccc(C)cc2)c1 (centres unmarked) [Compound 35, Ethyl-[4′-methyl-5-(1-pyrazin-2-yl-ethylcarbamoyl)-biphenyl-3-yl]-carbamic acid isobutyl ester] | 6.82 |
| CC(=O)N1CCC(C(=O)N(C)c2cc(C(=O)NC(C)c3cnccn3)cc(-c3ccc(C)cc3)c2)CC1 (centres unmarked) [Compound 61, 1-Acetyl-piperidine-4-carboxylic acid methyl-[4′-mcthyl-5-(1-pyrazin-2-yl-ethylcarbamoyl)-biphenyl-3-yl]-amide] | 5.7 |
| Cc1ccc(-c2cc(NC(=O)C(C)C)cc(C(=O)NC(C)c3cnccn3)c2)cc1 (centres unmarked) [Compound 42, 5-Isobutyrylamino-4′-methyl-biphenyl-3-carboxylic acid (1-pyrazin-2-yl-ethyl)-amide] | 5.53 |
| CCN(C(=O)CC(C)C)c1cc(C(=O)NC(C)c2cnccn2)cc(-c2ccc(C)cc2)c1 (centres unmarked) [Compound 29, 5-[Ethyl-(3-methyl-butyryl)-amino]-4′-methyl-biphenyl-3-carboxylic acid (1-pyrazin-2-yl-ethyl)-amide] | 7.38 |
| COCC(C)NC(=O)c1cc(NC(=O)c2ccc(C)s2)cc(-c2ccc(C)cc2)c1 (centres unmarked) [Compound 2, 5-Methyl-thiophene-2-carboxylic acid [5-(2-methoxy-1-methyl-ethylcarbamoyl)-4′-methyl-biphenyl-3-yl]-amide] | 5.2 |
| CCN(C(=O)CC(C)C)c1cc(C(=O)NC(C)CO)cc(-c2ccc(C)cc2)c1 (centres unmarked) [Compound 30, 5-[Ethyl-(3-methyl-butyryl)-amino]-4′-methyl-biphenyl-3-carboxylic acid (2-hydroxy-1-methyl-ethyl)-amide] | 7.33 |
| Cc1ccc(-c2cc(C(=O)NC(C)c3cnccn3)cc(N(C)C(=O)c3snnc3C)c2)cc1 (centres unmarked) [Compound 36, 4-Methyl-[1,2,3]thiadiazole-5-carboxylic acid methyl-[4′-methyl-5-(1-pyrazin-2-yl-ethylcarbamoyl)-biphenyl-3-yl]-amide] | 5.3 |
| Cc1ccc(-c2cc(C(=O)N[C@@H](C)CO)cc(N(C)C(=O)C(C)C)c2)c(F)c1 [Compound 59, 2′-Fluoro-5-(isobutyryl-methyl-amino)-4′-methyl-biphenyl-3-carboxylic acid ((S)-2-hydroxy-1-methyl-ethyl)-amide] | 8.16 |
| COCC(C)NC(=O)c1cc(NC(=O)c2ccc(F)cc2Cl)cc(-c2ccc(C)cc2)c1 (centres unmarked) [Compound 9, 5-(2-Chloro-4-fluoro-benzoylamino)-4′-methyl-biphenyl-3-carboxylic acid (2-methoxy-1-methyl-ethyl)-amide] | 5.44 |

same assay, conditions: CHO-K1 cells transfected with cloned rat P2X3; agonist α,β-meATP 1 μM; Fluo-3 AM calcium fluorescence; read-out: P2X3 (pIC50 values for the P2X3 receptor) (converted)

| SMILES | IC50 |
| --- | --- |
| CCN(C(=O)c1cnccn1)c1cc(C(=O)NC(C)c2cnccn2)cc(-c2ccc(C)cc2)c1 (centres unmarked) [Compound 27, Pyrazine-2-carboxylic acid ethyl-[4′-methyl-5-(1-pyrazin-2-yl-ethylcarbamoyl)-biphenyl-3-yl]-amide] | 4.47 µM |
